Target: T1, recombinant hPTP1B (human PTP1B, 1-299 aa) (Homo sapiens, UniProt P18031)
T1 construct: without the carboxy-terminal hydrophobic region (corresponding to 1-299 aa); made in house; host or cells: Sf9 insect cells (baculovirus, Bac-to-Bac, pFASTBAC)
T1 sequence (P18031 1-299): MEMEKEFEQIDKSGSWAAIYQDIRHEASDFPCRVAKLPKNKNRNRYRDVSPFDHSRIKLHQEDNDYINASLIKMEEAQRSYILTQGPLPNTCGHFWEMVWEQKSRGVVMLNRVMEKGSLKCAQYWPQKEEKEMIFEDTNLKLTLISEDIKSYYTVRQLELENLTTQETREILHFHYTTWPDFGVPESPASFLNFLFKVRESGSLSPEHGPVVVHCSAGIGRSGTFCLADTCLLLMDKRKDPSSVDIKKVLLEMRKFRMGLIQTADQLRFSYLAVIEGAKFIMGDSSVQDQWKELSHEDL
Assay: Enzymatic test systems for detecting inhibition of a phosphatase (in vitro assay)
Assay type: biochemical
Conditions: Table 2 does not say which substrate (phosphopeptide or p-nitrophenyl phosphate)
Protocol: Enzymatic Test Systems for Detecting Inhibition of a Phosphatase
The compounds of the formula I were tested for their phosphatase-inhibiting effect in an in vitro assay. The enzyme preparation and the performance of the assay was carried out as follows.
• Sf9 cells (=Spodoptera frugiperda cell type; obtainable from invitrogen) are cultured in Grace's supplemented medium (Gibco-BRL) with 10% heat-inactivated fetal calf serum (Gibco-BRL) in spinner flasks at 28° C. in accordance with the protocol of Summers and Smith (A Manual for Methods for Baculoviruns Vectors and Insect Culture Procedures [Bulletin No. 15555]. Texas A & M University, Texas Agricultural Experiment Station, College Station, Tex., 1987). • Construction of recombinant Baculovirus transfer vectors: cDNA coding for the regulatory and catalytic domains of human PTP1B, but without the carboxy-terminal hydrophobic region (corresponding to 1-299 aa) was obtained by polymerase chain reaction via primers with attached cloning sites and suitable cDNA templates (obtainable for example from invitrogen) and then cloned into baculovirus expression vectors (Amersham Pharmacia Biotech.). The recombinant baculoviruses were prepared with the aid of the Bac-to-Bac baculovirus expression system (obtainable from Gibco-BRL). The gene was cloned into the pFASTBAC donor plasmid (obtainable from Life Technologies). The resulting plasmid was transformed into competent DH10BAC Escherichia coli cells (obtainable from Life Technologies). After transposition and antibiotic selection, the recombinant plasmid DNA was isolated from selected E. coli colonies and then used for the transfection of Sf9 insect cells. The virus particle in the supernatant medium was amplified three times up to a viral stock volume of 500 ml. B) Production of Recombinant Protein: • Baculovirus infection of a 500 ml spinner culture of Sf9 cells was essentially carried out as described by Summers and Smith (see above). Sf9 cells at a density of 1–3×10^6 cells/ml were pelleted by centrifugation at 300 g for 5 min, the supernatant was removed, and the cells were resuspended in a density of 1×10^7 cells/ml in a suitable recombinant viral stock (MOI 10). After careful shaking at room temperature for 1.5 h, fresh medium was added in order to achieve a cell density of 1×10^6 cells/ml. The cells were then cultured in the suspension at 28° C. for suitable periods after postinfection. C) Cellular Fractionation and Complete Cell Extracts of Infected Sf9 Cells: • After the postinfection, aliquots were subjected to an analysis of protein expression by SDS-PAGE and Western blot analysis. The cellular fractionation was carried out as described (Cromlish, W. and Kennedy, B. Biochem. Pharmacol. 52: 1777–1785, 1996). Complete cell extracts were obtained from 1 ml aliquots of the infected Sf9 cells after certain times postinfection. The pelleted cells (300×g, 5 min) were washed once in phosphate-buffered saline (4° C.), resuspended in 50 μl of water and disrupted by repeated freezing/thawing. Protein concentrations were determined with the aid of the Bradford method and bovine serum albumin as standard. Assay Procedure: A) Dephosphorylation of a Phosphopeptide: • This assay is based on the release of phosphate from a consensus substrate peptide which is detected in the nanomolar concentration range by the malachite green/ammonium molybdate method (Lanzetta, P. A., Alvarez, L. J., Reinach, P. S., Candia, O. A. Anal Biochem. 100: 95–97, 1979) adapted for the microtiter plate format. The dodecatrisphosphopeptide TRDIYETDYYRK (Biotrend, Cologne) corresponds to amino acids 1142–1153 of the catalytic domain of the insulin receptor and is (auto)phosphorylated on tyrosine residues 1146, 1150 and 1151. […]

| IC50 [µM] | Structure (SMILES) |
| --- | --- |
| 27.8 | O=S1(=O)Cc2cc(Nc3nc(-c4ccc(Cl)c(Cl)c4)cs3)ccc2N1 [Example 2] |
| 8.8 | O=S1(=O)Cc2cc(Nc3nc(-c4ccc5ccccc5c4)cs3)ccc2N1 [Example 3] |
| 6.2 | O=S1(=O)Cc2cc(Nc3nc(-c4ccc(Br)cc4)cs3)ccc2N1 [Example 4] |
| 15.9 | Cc1sc(Nc2ccc3c(c2)CS(=O)(=O)N3)nc1-c1ccccc1 [Example 5] |
| 48 | COc1ccc(-c2csc(Nc3ccc4c(c3)CS(=O)(=O)N4)n2)c(OC)c1 [Example 6] |
| 7.9 | O=S1(=O)Cc2cc(Nc3nc(-c4cccc(Br)c4)cs3)ccc2N1 [Example 7] |
| 5.9 | O=S1(=O)Cc2cc(Nc3nc(-c4ccc(N5CCCC5)cc4)cs3)ccc2N1 [Example 8] |
| 6.3 | COc1cccc(-c2csc(Nc3ccc4c(c3)CS(=O)(=O)N4)n2)c1 [Example 9] |
| 5.3 | Cc1c(-c2csc(Nc3ccc4c(c3)CS(=O)(=O)N4)n2)sc2ccc(Cl)cc12 [Example 10] |
| 6.2 | Cc1c(-c2csc(Nc3ccc4c(c3)CS(=O)(=O)N4)n2)sc2ccccc12 [Example 11] |
| > 80 | O=S1(=O)Cc2cc(Nc3nc(-c4ccncc4)cs3)ccc2N1 [Example 13] |
| 2.77 | CC(C)(C)c1cc(-c2csc(Nc3ccc4c(c3)CS(=O)(=O)N4)n2)cc(C(C)(C)C)c1O [Example 14] |

From patent publication US7094794B2, “Substituted thiazole-benzoisothiazole dioxide derivatives, process for their preparation and their use” (Sanofi-Aventis Deutschland GmbH, priority 2003, dated 2006)
